A short description of data set [1]: In vitro stability in simulated intestinal fluid (mouse intestinal wash). It counts as in vitro ADME. The note with it: 120 μL of 5 mM DMSO stock in 1080 μL, 37°C, 0-1440 min, HPLC-UV 220 nm, n = 3. As for the experimental part: (§1) The samples were analyzed at 40°C on a Phenomenex Lichrosorb RP8 C8 column (4.0 mm × 250 mm, 5 μm), using the gradient elution method on an Agilent HPLC system (Agilent Technologies, Cheadle, UK) equipped with an 1100 series degasser, quaternary pump, autosampler, and column heater, and attached to an Agilent 1200 series PDA detector and a 1250 series fluorescent detector. The flow rate was set at 1.2 mL min^-1, and the injection volume was set at 40 μL, while detection was performed at 220 nm. The mobile phase was a mixture of mobile phase A (0.1% TFA in water) and phase B (0.08% TFA in acetonitrile), and in the first 5 min, the mobile phase was an 8:2 ratio of A:B (v/v) and from 5 to 15 min the percentage of B was raised from 8:2 to 1:9 (v/v). Linear calibration curves were constructed for both peptides between 0.1–100 μg.mL^−1. The retention time for the human Lau–PTEN-PDZ, mouse Lau–PTEN-PDZ, human Myr–PTEN-PDZ, and mouse Myr–PTEN-PDZ was 12.03, 11.60, 13.68, and 13.91, respectively.
The duodenum and ileum were excised from 10 non-fasted CD-1 male mice (7 weeks-old: Charles River Laboratories) that were sacrificed with CO2. Each duodenum and ileum were washed with 6 ml of phosphate buffer (50 mM, pH 6.63), and all the washes were pooled prior to centrifugation at 4000 rpm for 15 min at 4°C (Heraeus Multifuge 3sf) ([7],[15]). The intestinal wash was removed and frozen at −80°C prior to using it in stability studies without further dilution. Peptides stocks (5 mM in DMSO) were prepared and maintained at −20°C prior to performing stability studies. A stock peptide solution (120 μL) was added to the diluted pre-warmed (37°C) intestinal wash (1080 μL) with agitation at 100 rpm (Grant Aqua Waterbath), and samples (80 μL) were taken at 0, 15, 30, 45, 60, 90, 120, 180, 240, 360 and 1440 min, and diluted with ice-cold glacial acetic acid (17.5 M): acetonitrile (5:95 v/v, 80 μL) to quench the enzyme activity. Samples were vortexed and left in −80°C at least overnight to maximize protein precipitation, and after vortexing again for 15 min and centrifuging, the supernatant was analyzed by HPLC as described above.

Data set [2] can be described thus: In vitro stability in 50% brain homogenate. It counts as in vitro ADME, mouse. The following applies: 37°C, HPLC-UV 220 nm, one phase decay, least square fit, n = 3. As for the experimental part: as §1
The liver and brain of the mice were excised from […] CD-1 male mice (7 weeks-old: Charles River Laboratories) sacrificed with CO2, and the tissue was frozen immediately with liquid nitrogen prior to storage at −80°C. The liver and brain tissue were thawed and homogenized on ice in PBS (2 mL/g of tissue) using a glass 3 mL tissue homogenizer (20 strokes per sample), and the liver and brain homogenates were centrifuged (Heraeus Multifuge 3sf, Fisher Scientific, Basingstoke, UK) at 4300 g for 60 min at 4°C and at 3000 g for 20 min at 4°C, respectively. The supernatant was stored at −80°C, diluted 1:1 (v/v) with PBS (1x, pH 7.4), and used in stability studies. Peptides stocks (5 mM in DMSO) were prepared and maintained at −20°C prior to performing stability studies. These stock solutions (120 μL) were added to the diluted pre-warmed (37°C) liver or brain homogenate (50% v/v, 1080 μL) with agitation (100 rpm: Grant Aqua Waterbath), and samples (80 μL) were taken at 0, 5, 10, 15, 30, 45, 60, 90, 120, 180, 240, 360 and 1440 min, and diluted with ice-cold acetonitrile (80 μL). Samples were vortexed and left at −80°C at least overnight to allow for maximum protein precipitation, the samples were vortexed again for 15 min, centrifuged and the supernatant was analyzed by HPLC as described above.
The total protein concentration in the homogenates was determined using the Bradford protein assay ([7],[15]) and BSA as a standard. Ten stock solutions of BSA were prepared in PBS between 0.1–1 mg mL^−1, and 40 μL of each of the diluted stocks were added to 1.2 mL of Bradford reagent and incubated at room temperature for 5 min. The absorbance was recorded at 595 nm using a Multiskan GO spectrophotometer and the SkanIt software (Thermo Scientific, Paisley, UK). A linear calibration curve was obtained in this range that was used to extrapolate the protein content of 1:100 v/v stock solutions of 50% mouse plasma, liver, and brain homogenates diluted in PBS.

The test system of a further data set is hCMEC/D3 cells. Kind of data set: MTT metabolic activity assay in hCMEC/D3 cells. The class given is cell-based, human. The note with it: 24 h versus 4 h exposure. As for the experimental part: HCMEC/D3 (passage number 32–40) cultured in EBM-2 (Lonza) supplemented with the EGM-2 Bullet Kit™ (Lonza), and 2% v/v human serum (Sigma H3667, Batch: SLBW2276) were used to assess the cytotoxicity of lipidized peptides. The cells were subjected to routine mycoplasma testing and authenticated in house. The cells were seeded at 46,875 cells/cm^2 in complete medium, and allowed to attach overnight, refreshing the medium to treat the cells with peptide solutions. The peptide solutions were prepared from […] DMSO stocks at a final concentration between 1 and 400 μM in complete medium to ensure a final DMSO concentration of 0.5%, and 200 μL of the diluted stock was added to each well. The metabolic activity of the cells was measured after 4 and 24 h using the MTT (3-(4,5)-dimethylthiazol-2-yl)-2,5-diphenyltetrazolium bromide) assay. At the time points specified, the MTT solution was added to each well (20 μL at 5 mg.mL^−1 in PBS), and the cells were incubated for 4 h at 37°C. Subsequently, DMSO (100 μL) was added to dissolve the formazan crystals, and the absorbance was measured at 570 and 690 nm on a Multiskan Go microplate spectrophotometer, analyzing the data using the SkanIt software (Thermo Scientific, Paisley, UK). […]
IC50 values were calculated using Graphpad Prism 8.0 (San Diego, USA) and fitted using a non-linear regression model ([Inhibitor] vs. response (three parameters)).

A short description of data set [3]: Permeability across in vitro 2D human blood-brain barrier model. It counts as in vitro ADME. The note with it: read-out: Papp0-4h, Experiment 2.
Where [4] appears, read: Simulated intestinal fluid = undiluted pooled CD-1 mouse duodenum/ileum wash, phosphate buffer pH 6.63, one phase decay fit.
Setting [5] is: 50% w/v mouse brain homogenate in PBS pH 7.4.

Residues, ends and D or L forms follow the SMILES beside them.

For `CCCCCCCCCCCCCC(=O)N[C@@H](CCC(N)=O)C(=O)N[C@@H](Cc1c[nH]cn1)C(=O)N[C@@H](CO)C(=O)N[C@@H](CCC(N)=O)C(=O)N[C@H](C(=O)N[C@H](C(=O)N[C@@H](CCCCN)C(=O)N[C@H](C(=O)O)C(C)C)[C@@H](C)O)[C@@H](C)CC` [Mouse Myr-PTEN-PDZ] (HELM PEPTIDE1{[CCCCCCCCCCCCCC(=O)[*:2]].Q.H.S.Q.I.T.K.V}$$$$V2.0), the k in data set [1] (Simulated intestinal fluid = undiluted pooled CD-1 mouse duodenum/ileum wash in 50 mM phosphate buffer pH 6.63, 100 rpm, one phase decay, least square fit) was 0.15 h⁻¹; in data set [2] (50% w/v CD-1 mouse brain homogenate in PBS pH 7.4, 120 μL of 5 mM DMSO stock in 1080 μL, 100 rpm, 0-1440 min) it was 2.71 h⁻¹. Moreover, the “t1/2 (h)” value in data set [1] (setting [4]) is given as 4.52 h; in data set [2] (setting [5]) it was 0.25 h. Moreover, the “t1/2 (min)” value in data set [1] (setting [4]) was 271.02 min; in data set [2] (setting [5]), 15.32 min. Also, the “Recovery of cell metabolic activity after 24 h” value in the data set on hCMEC/D3 cells is on record as “did not allow the cells to recover after 24 h”. Also, in data set [3], the Papp A→B at 100 μM came out at 2.63 ± 0.08 ×10⁻⁶ cm/s.
